# Source: the NIST ThermoML archive (doi:10.1016/j.fluid.2014.04.028)
# ± gives the expanded uncertainty stated by the source.
# Legend:
# [1] = Molar enthalpy of transition or fusion; conditions: Crystal; DSC
# [2] = Crystal; DTA
# [3] = molar heat capacity at constant pressure; conditions: 101.33 kPa, Small sample (50 mg) DSC
smiles,measurement,setting,value
Cc1nc2n(c(=O)c1CCN1CCC(c3noc4cc(F)ccc34)CC1)CCCC2 [risperidone],Molar enthalpy of transition or fusion,[1],10.5 ± 0.222 kcal/mol
same,Normal melting temperature,[2],169.23 ± 0.63 °C
same,molar heat capacity at constant pressure,"[3]; 270.1 K, Crystal",471 ± 12 J/K/mol
same,molar heat capacity at constant pressure,"[3]; 275 K, Crystal",476 ± 13 J/K/mol
same,molar heat capacity at constant pressure,"[3]; 280.1 K, Crystal",480 ± 12 J/K/mol
same,molar heat capacity at constant pressure,"[3]; 284.9 K, Crystal",483 ± 12 J/K/mol
same,molar heat capacity at constant pressure,"[3]; 290.1 K, Crystal",489 ± 12 J/K/mol
same,molar heat capacity at constant pressure,"[3]; 294.9 K, Crystal",495 ± 12 J/K/mol
same,molar heat capacity at constant pressure,"[3]; 300.1 K, Crystal",502 ± 12 J/K/mol
same,molar heat capacity at constant pressure,"[3]; 304.9 K, Crystal",509 ± 12 J/K/mol
same,molar heat capacity at constant pressure,"[3]; 310.1 K, Crystal",516 ± 12 J/K/mol
same,molar heat capacity at constant pressure,"[3]; 314.9 K, Crystal",523 ± 12 J/K/mol
same,molar heat capacity at constant pressure,"[3]; 320.1 K, Crystal",530 ± 12 J/K/mol
same,molar heat capacity at constant pressure,"[3]; 324.9 K, Crystal",537 ± 12 J/K/mol
same,molar heat capacity at constant pressure,"[3]; 330.1 K, Crystal",544 ± 12 J/K/mol
same,molar heat capacity at constant pressure,"[3]; 334.9 K, Crystal",551 ± 13 J/K/mol
same,molar heat capacity at constant pressure,"[3]; 340 K, Crystal",558 ± 13 J/K/mol
same,molar heat capacity at constant pressure,"[3]; 345.1 K, Crystal",564 ± 13 J/K/mol
same,molar heat capacity at constant pressure,"[3]; 350 K, Crystal",571 ± 13 J/K/mol
same,molar heat capacity at constant pressure,"[3]; 355.1 K, Crystal",578 ± 13 J/K/mol
same,molar heat capacity at constant pressure,"[3]; 359.9 K, Crystal",583 ± 13 J/K/mol
same,molar heat capacity at constant pressure,"[3]; 365 K, Crystal",590 ± 13 J/K/mol
same,molar heat capacity at constant pressure,"[3]; 370.1 K, Crystal",597 ± 13 J/K/mol
same,molar heat capacity at constant pressure,"[3]; 375 K, Crystal",602 ± 13 J/K/mol
same,molar heat capacity at constant pressure,"[3]; 380.1 K, Crystal",609 ± 13 J/K/mol
same,molar heat capacity at constant pressure,"[3]; 384.9 K, Crystal",615 ± 14 J/K/mol
same,molar heat capacity at constant pressure,"[3]; 390 K, Crystal",621 ± 14 J/K/mol
same,molar heat capacity at constant pressure,"[3]; 394.9 K, Crystal",627 ± 14 J/K/mol
same,molar heat capacity at constant pressure,"[3]; 400 K, Crystal",634 ± 14 J/K/mol
same,molar heat capacity at constant pressure,"[3]; 405.1 K, Crystal",641 ± 14 J/K/mol
same,molar heat capacity at constant pressure,"[3]; 409.9 K, Crystal",647 ± 14 J/K/mol
same,molar heat capacity at constant pressure,"[3]; 430.1 K, Liquid",839 ± 14 J/K/mol
same,molar heat capacity at constant pressure,"[3]; 434.9 K, Liquid",842 ± 14 J/K/mol
same,molar heat capacity at constant pressure,"[3]; 440 K, Liquid",845 ± 14 J/K/mol
same,molar heat capacity at constant pressure,"[3]; 445.1 K, Liquid",850 ± 14 J/K/mol
same,molar heat capacity at constant pressure,"[3]; 449.9 K, Liquid",854 ± 14 J/K/mol
same,molar heat capacity at constant pressure,"[3]; 453 K, Liquid",856 ± 14 J/K/mol
